The results in this text go back to US8981094B2, “Piperidine/piperazine derivatives” (Janssen Pharmaceutica N.V., priority 2007, dated 2015).

In series [1] the target is T1, human DGAT1 (Homo sapiens, UniProt O75907).
T1 construct: FLAG (N); made in house; host or cells: SF9 insect cells (pFastBac baculovirus); total cell membranes
T1 sequence (O75907 1-488): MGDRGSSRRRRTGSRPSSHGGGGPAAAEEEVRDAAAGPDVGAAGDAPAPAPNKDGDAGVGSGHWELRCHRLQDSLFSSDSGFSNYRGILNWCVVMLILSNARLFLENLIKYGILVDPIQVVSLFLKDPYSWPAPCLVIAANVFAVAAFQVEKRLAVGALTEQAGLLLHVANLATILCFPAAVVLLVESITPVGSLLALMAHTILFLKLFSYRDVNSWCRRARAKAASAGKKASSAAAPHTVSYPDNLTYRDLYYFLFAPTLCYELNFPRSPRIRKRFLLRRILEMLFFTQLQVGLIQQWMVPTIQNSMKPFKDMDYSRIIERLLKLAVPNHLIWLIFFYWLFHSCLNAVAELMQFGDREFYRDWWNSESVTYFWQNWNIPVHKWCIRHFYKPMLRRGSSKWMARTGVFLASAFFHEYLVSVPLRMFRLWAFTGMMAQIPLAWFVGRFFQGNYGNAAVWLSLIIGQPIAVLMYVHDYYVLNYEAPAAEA
Description: Inhibition of DGAT1 activity, FlashPlate assay with DGAT1 membrane preparations and substrate micelles. Type of series: biochemical. The settings on record: pIC50 = -logIC50, IC50 values expressed in M. Summed up:
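FLAG-tagged human DGAT1 membranes (expressed in Sf9 cells) were incubated 120 min at 37° C. in 50 mM Tris-HCl pH 7.4 with 150 mM MgCl2, 1 mM EDTA, 0.2% BSA, 50 μM DAG micelles (PC/PS) and 8.4 μM [^3H]-oleoylCoA. The reaction was stopped with N-ethylmaleimide and read as FlashPlate radioluminescence. Responses were normalized to enzyme/no-enzyme controls to fit dose-response curves.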

Each structure is given as a SMILES string.

Compound `O=C(CC1CCCCC1)Nc1ccc(N2CCN(C(=O)Nc3c(Cl)cccc3Cl)CC2)cc1` [Compound 1] yielded a melting point of 285.3 °C. Also, in series [1], 4.47 nM corresponded to half-maximal inhibition (IC50).

`O=C(CCOc1ccccc1)Nc1ccc(N2CCN(C(=O)Nc3c(Cl)cccc3Cl)CC2)cc1` [Compound 3] gave a melting point of 268.2 °C. For the same compound, in series [1], 7.59 nM corresponded to half-maximal inhibition (IC50). The matching figures for `O=C(CNc1ccccc1Cl)Nc1ccc(N2CCN(C(=O)Nc3c(Cl)cccc3Cl)CC2)cc1` [Compound 4]: 247 to 249 °C and 2.69 nM. The matching figures for `CC(C)(C)OC(=O)NC1(C(=O)Nc2ccc(N3CCN(C(=O)Nc4c(Cl)cccc4Cl)CC3)cc2)CCCC1` [Compound 5]: 242.6 °C and 151 nM. For `C=CCN(CCC(=O)Nc1ccc(N2CCN(C(=O)Nc3c(Cl)cccc3Cl)CC2)cc1)c1ccccc1Cl` [Compound 7], in that order: 232 to 233 °C and 8.51 nM.

`CCCCCCC(=O)Nc1ccc(N2CCN(C(=O)Nc3c(Cl)cccc3Cl)CC2)cc1` [Compound 8]: the melting point was 245.1 °C. This compound also had an IC50 in series [1] of 8.91 nM.

`O=C(CCc1ccccn1)Nc1ccc(N2CCN(C(=O)Nc3c(Cl)cccc3Cl)CC2)cc1` [Compound 9] had a melting point of 187 to 188 °C. The midpoint of inhibition in series [1], the IC50, lay at 550 nM. Compound `Cc1cc(C)c(NC(=O)N2CCN(c3ccc(NC(=O)CCCc4ccccc4)cc3)CC2)c(Br)c1` [Compound 11] gave a melting point of 238.7 °C. This compound gave an IC50 in series [1] of 6.17 nM.

As for `O=C(CCCc1ccccc1)Nc1ccc(N2CCN(C(=O)Nc3c(Cl)ccc4c3CCO4)CC2)cc1` [Compound 12], the melting point worked out at 209.8 °C. In series [1], half-maximal inhibition (IC50) required 182 nM. For `CC(C)NC(=O)N(C)CC(=O)Nc1ccc(N2CCN(C(=O)Nc3c(Cl)cccc3Cl)CC2)cc1` [Compound 14], in that order: 217 to 219 °C and 316 nM. Compound `COc1ccc(CC(=O)Nc2ccc(N3CCN(C(=O)Nc4c(Cl)cc(O)cc4Cl)CC3)cc2)cc1` [Compound 16] came in with a melting point of 183 to 184 °C. Further, half-maximal inhibition in series [1] (IC50) required 4.68 nM.

Take `O=C(CCCc1ccccc1)Nc1ccc(N2CCN(/C=C/C(=O)c3c(Cl)cccc3Cl)CC2)cc1` [Compound 18]: the melting point was 178.2 °C. The same compound showed an IC50 in series [1] of 120 nM.

The compound `O=C(CCCc1ccccc1)Nc1ccc(N2CCN(C(=O)C(O)c3ccccc3Cl)CC2)cc1` (stereo not drawn) [Compound 19] showed a melting point of 142.3 °C. This compound also showed an IC50 in series [1] of 30.9 nM. Compound `O=C(CNc1ccccc1)Nc1ccc(N2CCN(C(=O)Nc3c(Cl)cccc3Cl)CC2)cc1` [Compound 21] displayed a melting point of 244 to 246 °C. In series [1], the IC50 was 72.4 nM. In the case of `Cc1ccc(NCC(=O)Nc2ccc(N3CCN(C(=O)Nc4c(Cl)cccc4Cl)CC3)cc2)c(C)c1` [Compound 22], the melting point is 248 to 249 °C. This compound gave an IC50 in series [1] of 14.8 nM. The matching figures for `CS(=O)(=O)N1CCN(CC(=O)Nc2ccc(N3CCN(C(=O)Nc4c(Cl)cccc4Cl)CC3)cc2)CC1` [Compound 26]: 232 to 234 °C and 692 nM. For the compound `O=C(CCCc1ccccc1)Nc1ccc(N2CCN(C(=O)Nc3c(Cl)cc(CO)cc3Cl)CC2)cc1` [Compound 28], the melting point stood at 196.1 °C. Also, the IC50 in series [1] is 1.95 nM. As for `O=C(CC(=O)OCc1ccccc1)Nc1ccc(N2CCN(C(=O)Nc3c(Cl)cccc3Cl)CC2)cc1` [Compound 277], the IC50 in series [1] is 4.57 nM. For the compound `CC(C)(C)OC(=O)CCC(=O)Nc1ccc(N2CCN(C(=O)Nc3c(Cl)cccc3Cl)CC2)cc1` [Compound 279], the IC50 in series [1] was 6.76 nM. On the same count and under the same terms, next, `CC(C)(C)OC(=O)CC(=O)Nc1ccc(N2CCN(C(=O)Nc3c(Cl)cccc3Cl)CC2)cc1` [Compound 282]: 7.76 nM; `CN(C)C(=O)c1cc(Cl)c(NC(=O)N2CCN(c3ccc(NC(=O)CCCc4ccccc4)cc3)CC2)c(Cl)c1` [Compound 284]: 8.13 nM; `CN1CCN(C(=O)c2cc(Cl)c(NC(=O)N3CCN(c4ccc(NC(=O)CCCc5ccccc5)cc4)CC3)c(Cl)c2)CC1` [Compound 290]: 10.5 nM. On the same count and under the same terms, next, `COCCN(C)C(=O)c1cc(Cl)c(NC(=O)N2CCN(c3ccc(NC(=O)CCCc4ccccc4)cc3)CC2)c(Cl)c1` [Compound 291]: 10.5 nM; `O=C(CCCc1ccccc1)Nc1ccc(N2CCN(C(=O)Nc3c(Cl)cc(C(=O)N4CCOCC4)cc3Cl)CC2)cc1` [Compound 294]: 12.3 nM. Compound `O=C(CCCc1ccccc1)Nc1ccc(N2CCN(C(=O)C(O)c3ccccc3Br)CC2)cc1` (stereo not drawn) [Compound 295] gave an IC50 in series [1] of 13.8 nM. As to `CN(C)C(=O)CN(C)C(=O)c1cc(Cl)c(NC(=O)N2CCN(c3ccc(NC(=O)CCCc4ccccc4)cc3)CC2)c(Cl)c1` [Compound 296], the IC50 in series [1] is 14.8 nM.

In series [1], `CCOC(=O)CCCC(=O)Nc1ccc(N2CCN(C(=O)Nc3c(Cl)cccc3Cl)CC2)cc1` [Compound 297] gave an IC50 of 15.1 nM. On the same count and under the same terms, the figure for `COc1ccc(CC(=O)Nc2ccc([N+]3([O-])CCN(C(=O)Nc4c(Cl)cc(C[N+]5([O-])CCCC5)cc4Cl)CC3)cc2)cc1` [Compound 300] is 20 nM. The same measure, in the same setting: the figure for `O=C(CCC(=O)OCc1ccccc1)Nc1ccc(N2CCN(C(=O)Nc3c(Cl)cccc3Cl)CC2)cc1` [Compound 302] is 20.9 nM. Compound `O=C(CCCc1ccccc1)Nc1ccc(N2CCN(C(=O)Nc3c(Cl)cc(C(=O)NCc4ccncc4)cc3Cl)CC2)cc1` [Compound 303] gave an IC50 in series [1] of 21.4 nM. `COCCNC(=O)c1cc(Cl)c(NC(=O)N2CCN(c3ccc(NC(=O)CCCc4ccccc4)cc3)CC2)c(Cl)c1` [Compound 306]: the IC50 in series [1] was 26.3 nM. The same measure, in the same setting: the figure for `COc1ccc(CC(=O)Nc2ccc(N3CCN(C(=O)Oc4c(Cl)cccc4Cl)CC3)cc2)cc1` [Compound 308] is 31.6 nM. Regarding `O=C(CCCc1ccccc1)Nc1ccc(N2CCN(C(=O)C(O)c3ccc(F)cc3Cl)CC2)cc1` (stereo not drawn) [Compound 309], the IC50 in series [1] was 35.5 nM. The same measure, in the same setting: the figure for `O=C(CCCc1ccccc1)Nc1ccc(N2CCN(C(=O)Nc3c(Cl)cc(C(=O)NCCN4CCOCC4)cc3Cl)CC2)cc1` [Compound 310] is 37.2 nM; for `CC(=O)NCCNC(=O)c1cc(Cl)c(NC(=O)N2CCN(c3ccc(NC(=O)CCCc4ccccc4)cc3)CC2)c(Cl)c1` [Compound 314] it is 51.3 nM.

Turning to `O=C(CCCc1ccccc1)Nc1ccc(N2CCN(C(=O)C(O)c3c(Cl)cccc3Cl)CC2)cc1` (stereo not drawn) [Compound 315], inhibition in series [1] was half-maximal at 58.9 nM (IC50).

In the case of `CN(C)CCNC(=O)c1cc(Cl)c(NC(=O)N2CCN(c3ccc(NC(=O)CCCc4ccccc4)cc3)CC2)c(Cl)c1` [Compound 321], in series [1], 91.2 nM corresponded to half-maximal inhibition (IC50). Still for that read-out and setting: the figure for `O=C(CCCc1ccccc1)Nc1ccc(N2CCN(C(=O)C(O)c3ccc(F)cc3F)CC2)cc1` (stereo not drawn) [Compound 325] is 115 nM. Turning to `O=C(CCCc1ccccc1)Nc1ccc(N2CCN(C(=O)Nc3c(Cl)cccc3Cl)CC2)c(CO)c1` [Compound 326], the IC50 in series [1] was 126 nM. On the same count and under the same terms, the figure for `O=C(CCCc1ccccc1)Nc1ccc(N2CCN(C(=O)C(O)c3cccc(F)c3F)CC2)cc1` (stereo not drawn) [Compound 327] is 129 nM. On the same count and under the same terms, the figure for `O=C(CCCc1ccccc1)Nc1ccc(N2CCN(C(=O)C(O)c3c(F)cccc3F)CC2)cc1` (stereo not drawn) [Compound 330] is 200 nM; for `CCC(C(=O)Nc1ccc(N2CCN(C(=O)Cc3ccccc3C)CC2)cc1)c1ccccc1` (stereo not drawn) [Compound 336] it is 692 nM; for `COc1ccc(CC(=O)Nc2ccc(N3CCN(C(=O)C(N)c4ccccc4Cl)CC3)cc2)cc1` (stereo not drawn) [Compound 337] it is 2450 nM.

`O=C(CCCc1ccccc1)Nc1ccc(N2CCN(C(=O)C(O)c3cccc(O)c3)CC2)cc1` (stereo not drawn) [Compound 340]: in series [1], inhibition was half-maximal at 3550 nM (IC50). Same read-out and setting: next, `O=C(CCCc1ccccc1)Nc1ccc(N2CCN(C(=O)C(O)c3ccc(F)c(F)c3)CC2)cc1` (stereo not drawn) [Compound 341]: 3720 nM; `COc1ccc(CC(=O)Nc2ccc(N3CCN(C(=O)C4(c5c(Cl)cccc5Cl)CC4)CC3)cc2)cc1` [Compound 342]: 3980 nM; `O=C(CCCc1ccccc1)Nc1ccc(N2CCN(C(=O)C(O)c3ccc(F)cc3)CC2)cc1` (stereo not drawn) [Compound 344]: 4070 nM. On the same count and under the same terms, the figure for `CC(C(=O)N1CCN(c2ccc(NC(=O)CCCc3ccccc3)cc2)CC1)c1ccc(O)cc1` (stereo not drawn) [Compound 347] is 5010 nM; for `COc1cc(C(O)C(=O)N2CCN(c3ccc(NC(=O)CCCc4ccccc4)cc3)CC2)ccc1O` (stereo not drawn) [Compound 348] it is 5250 nM. The same measure, in the same setting: next, `O=C(CCCc1ccccc1)Nc1ccc(N2CCN(C(=O)C(O)c3ccc(Br)cc3)CC2)cc1` (stereo not drawn) [Compound 349]: 6030 nM; `COc1ccc(CC(=O)Nc2ccc(N3CCN(C(=O)Cc4c(Cl)cc(CN5CCCC5)cc4Cl)CC3)cc2)cc1` [Compound 351]: 245 nM; `COc1ccc(CC(=O)Nc2ccc(N3CCN(C(=O)C(O)c4ccc(CN5CCCC5)cc4Cl)CC3)cc2)cc1` (stereo not drawn) [Compound 352]: 339 nM.
